US20200278355A1, “CONJUGATED PROTEINS AND USES THEREOF” (THE SCRIPPS RESEARCH INSTITUTE, priority 2017, published 2020)

How the values were obtained:
Assay type in all cases: cell-based
GSTO1 = target: T1, GSTO1 (Homo sapiens, UniProt P78417); assay: ABPP-SILAC BPK-29yne competition in H460 cells: GSTO1; settings: 20 μM
T1 construct: Isotopically labeled H460 cell lines were generated as described above; endogenous in cells; host or cells: H460 (SILAC-labelled)
Description: (§1) Isotopically labeled H460 cell lines were generated as described above. Light and heavy cells were treated with compounds (20 μM) or DMSO, respectively, for 3 h, followed by labeling with the BPK-29yne (5 μM) for 30 min. Cells were washed once ice-cold PBS and lysed in 1% Triton 100-X dissolved in PBS with protease inhibitors (Sigma) by sonication. Lysate was adjusted to 1.5 mg ml^−1 in 500 μL. Samples were conjugated by CuAAC to Biotin-PEG4-azide (5 μL of 10 mM stocks in DMSO, final concentration=100 μM). CuAAC “click” mix contained TCEP, TBTA ligand and CuSO4 as detailed for isoTOP-ABPP sample preparation. Samples were further processed as detailed in: isoTOP-ABPP streptavidin enrichment and isoTOP-ABPP trypsin TEV digestion with the following exception: after overnight incubation at 37° C. with trypsin, tryptic digests were separated from the beads with Micro Bio-Spin columns (Bio-Rad) by centrifugation (1,000×g, 1 min). Beads were rinsed once with water (200 μL) and combined with tryptic digests. […]
(§2) The MS2 spectra data were extracted and searched using RAW Convertor and ProLuCID algorithm as described in isoTOP-ABPP peptide and protein quantification. […] Ratios of heavy/light (DMSO/test compound) peaks were calculated using in-house CIMAGE software. […] The mean R values and standard deviation for multiple biological experiments were calculated from the average ratios from each replicate. […]

NT5DC1 = target: T2, NT5DC1 (Homo sapiens, UniProt Q5TFE4); assay: ABPP-SILAC BPK-29yne competition in H460 cells: NT5DC1; settings: 20 μM
T2 construct: Isotopically labeled H460 cell lines were generated as described above; endogenous in cells; host or cells: H460 (SILAC-labelled)
T2 sequence (Q5TFE4 whole entry): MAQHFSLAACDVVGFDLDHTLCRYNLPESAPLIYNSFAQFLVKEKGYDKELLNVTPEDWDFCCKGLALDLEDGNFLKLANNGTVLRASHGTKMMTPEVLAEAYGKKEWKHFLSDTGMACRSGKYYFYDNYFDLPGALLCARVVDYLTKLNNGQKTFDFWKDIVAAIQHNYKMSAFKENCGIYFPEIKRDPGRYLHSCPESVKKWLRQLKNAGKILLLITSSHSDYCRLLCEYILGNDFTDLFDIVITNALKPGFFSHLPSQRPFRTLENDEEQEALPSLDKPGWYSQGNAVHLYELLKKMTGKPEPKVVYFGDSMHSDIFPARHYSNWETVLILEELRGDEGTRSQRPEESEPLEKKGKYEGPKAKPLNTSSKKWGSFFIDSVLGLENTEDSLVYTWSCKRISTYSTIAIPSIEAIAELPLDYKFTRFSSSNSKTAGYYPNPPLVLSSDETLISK
Description: as §1, §2

SELO = target: T3, SELO (Homo sapiens, UniProt Q9BVL4); assay: ABPP-SILAC BPK-29yne competition in H460 cells: SELO; settings: 20 μM
T3 construct: Isotopically labeled H460 cell lines were generated as described above; endogenous in cells; host or cells: H460 (SILAC-labelled)
T3 sequence (Q9BVL4 116-669): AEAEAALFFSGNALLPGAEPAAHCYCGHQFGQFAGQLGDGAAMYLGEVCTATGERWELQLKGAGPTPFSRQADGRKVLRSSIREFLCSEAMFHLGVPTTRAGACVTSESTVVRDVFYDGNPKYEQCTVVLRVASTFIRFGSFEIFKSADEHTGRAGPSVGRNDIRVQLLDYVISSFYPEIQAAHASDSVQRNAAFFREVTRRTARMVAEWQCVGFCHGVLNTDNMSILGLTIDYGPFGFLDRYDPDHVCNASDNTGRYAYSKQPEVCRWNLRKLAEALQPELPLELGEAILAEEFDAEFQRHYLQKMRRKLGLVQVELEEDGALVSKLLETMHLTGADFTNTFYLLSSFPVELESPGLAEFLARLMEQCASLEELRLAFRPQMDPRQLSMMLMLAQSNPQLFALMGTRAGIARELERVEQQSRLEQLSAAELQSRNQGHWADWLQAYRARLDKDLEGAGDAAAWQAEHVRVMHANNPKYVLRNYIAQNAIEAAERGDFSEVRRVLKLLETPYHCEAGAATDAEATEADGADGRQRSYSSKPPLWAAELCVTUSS
Description: as §1, §2

TXN = target: T4, TXN (Homo sapiens, UniProt P10599); assay: ABPP-SILAC BPK-29yne competition in H460 cells: TXN; settings: 20 μM
T4 construct: H460 cells or H460 cells expressing luciferase in a 10 cm plate were incubated with indicated compounds; endogenous in cells; host or cells: H460
T4 sequence (P10599 whole entry): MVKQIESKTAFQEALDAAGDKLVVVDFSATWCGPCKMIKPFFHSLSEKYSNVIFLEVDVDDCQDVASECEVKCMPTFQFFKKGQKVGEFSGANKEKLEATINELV
Description: as §1, §2

NR0B1 = target: T5, NR0B1 (Homo sapiens, UniProt P51843); assay: ABPP-SILAC BPK-29yne competition in H460 cells: NR0B1; settings: 20 μM
T5 construct: H460 cells or H460 cells expressing luciferase in a 10 cm plate were incubated with indicated compounds; endogenous in cells; host or cells: H460 (NSCLC, KEAP1-mutant)
T5 sequence (P51843 1-470): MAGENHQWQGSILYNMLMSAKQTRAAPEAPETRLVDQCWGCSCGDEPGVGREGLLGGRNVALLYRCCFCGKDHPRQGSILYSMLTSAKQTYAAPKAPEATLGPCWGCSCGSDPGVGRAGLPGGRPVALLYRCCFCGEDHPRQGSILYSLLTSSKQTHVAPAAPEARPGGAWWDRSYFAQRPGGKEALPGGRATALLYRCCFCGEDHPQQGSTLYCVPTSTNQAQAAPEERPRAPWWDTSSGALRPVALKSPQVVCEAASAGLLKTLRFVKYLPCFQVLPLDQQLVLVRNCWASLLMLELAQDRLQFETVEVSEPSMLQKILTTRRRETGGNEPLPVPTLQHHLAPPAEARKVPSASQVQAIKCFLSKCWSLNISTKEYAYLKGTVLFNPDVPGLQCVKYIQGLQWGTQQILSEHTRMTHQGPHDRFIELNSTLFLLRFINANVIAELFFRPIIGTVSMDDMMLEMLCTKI
Description: as §1, §2

FLAG-NR0B1 (WT) = target: T6, FLAG-NR0B1 (WT) (Homo sapiens, UniProt P51843); assay: Gel-based BPK-29yne labeling of NR0B1 and competition in HEK293T cells; settings: 3 h pre-treatment, then BPK-29yne 30 min
T6 construct: expressed in transfected cells; host or cells: HEK-293T, transient, pRK5-based vector
Description: 4×10^6 HEK-293T cells were seeded in poly-L-lysine coated 10 cm plates and transfected the next day with 5 μg of FLAG-NR0B1, FLAG-NR0B1-C274V, or FLAG-METAP2 cDNA in a pRK5-based expression vector. 48 h after transfection, cells were treated with indicated concentrations of BPK-29 or control compound BPK-27 for 3 h at 37° C. in DMEM containing 10% FBS and supplements as described in Cell Culture. BPK-29yne (5 μM) was then added and incubated for an additional 30 min at 37° C. FLAG immunoprecipitates were prepared as described above and following washes, the FLAG resin was resuspended in PBS (100 μL). To each sample, 12 μL of a freshly prepared “click” reagent mixture was added to conjugate the fluorophore to probe-labeled proteins. […] Samples were boiled for 5 min and proteins were resolved by SDS-PAGE (10% acrylamide), and visualized by in-gel fluorescence on a Bio-Rad ChemiDoc MP flatbed fluorescence scanner. Samples were also analyzed by immunoblotting. Recombinantly expressed FLAG-tagged protein levels were determined with the FLAG antibody (Sigma). Gel fluorescence and imaging was processed using Image Lab (v 5.2.1) software.

T1 sequence (P78417 whole entry): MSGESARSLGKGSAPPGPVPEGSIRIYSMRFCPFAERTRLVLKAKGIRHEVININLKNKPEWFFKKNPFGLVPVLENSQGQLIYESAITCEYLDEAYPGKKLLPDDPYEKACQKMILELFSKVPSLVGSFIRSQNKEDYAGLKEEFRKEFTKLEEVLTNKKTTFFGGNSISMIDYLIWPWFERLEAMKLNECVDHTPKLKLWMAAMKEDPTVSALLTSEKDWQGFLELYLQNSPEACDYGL

SMILES: O=C(c1ccc(N2CCOCC2)cc1)N1CCCC(N(Cc2ccccc2)C(=O)CCl)CC1 (stereo not drawn) [BPK-29, N-benzyl-2-chloro-N-(1-(4-morpholinobenzoyl)azepan-4-yl)acetamide]
- BPK-29-competed BPK-29yne analysis (GSTO1): Yes (Competed defined as showing R value ≥ 2.5 at 20 μM of test compound)
- BPK-29-competed BPK-29yne analysis (NT5DC1): Yes (Competed defined as showing R value ≥ 2.5 at 20 μM of test compound)
- BPK-29-competed BPK-29yne analysis (SELO): Yes (Competed defined as showing R value ≥ 2.5 at 20 μM of test compound)
- BPK-29-competed BPK-29yne analysis (TXN): Yes (Competed defined as showing R value ≥ 2.5 at 20 μM of test compound)
- BPK-29-competed BPK-29yne analysis (NR0B1): Yes (Competed defined as showing R value ≥ 2.5 at 20 μM of test compound)
- blockade of BPK-29yne labeling of NR0B1 by pre-treatment (FLAG-NR0B1 (WT)): blocked by pre-treatment with BPK-29 in a concentration dependent manner
